From US7179941B2, “Carbonylamino-substituted acyl phenyl urea derivatives, process for their preparation and their use” (Sanofi-Aventis Deutschland GmbH, priority 2003, dated 2007)

Molecular target: T1, human glycogen phosphorylase a (Homo sapiens, UniProt P06737)
T1 sequence (P06737 1-847): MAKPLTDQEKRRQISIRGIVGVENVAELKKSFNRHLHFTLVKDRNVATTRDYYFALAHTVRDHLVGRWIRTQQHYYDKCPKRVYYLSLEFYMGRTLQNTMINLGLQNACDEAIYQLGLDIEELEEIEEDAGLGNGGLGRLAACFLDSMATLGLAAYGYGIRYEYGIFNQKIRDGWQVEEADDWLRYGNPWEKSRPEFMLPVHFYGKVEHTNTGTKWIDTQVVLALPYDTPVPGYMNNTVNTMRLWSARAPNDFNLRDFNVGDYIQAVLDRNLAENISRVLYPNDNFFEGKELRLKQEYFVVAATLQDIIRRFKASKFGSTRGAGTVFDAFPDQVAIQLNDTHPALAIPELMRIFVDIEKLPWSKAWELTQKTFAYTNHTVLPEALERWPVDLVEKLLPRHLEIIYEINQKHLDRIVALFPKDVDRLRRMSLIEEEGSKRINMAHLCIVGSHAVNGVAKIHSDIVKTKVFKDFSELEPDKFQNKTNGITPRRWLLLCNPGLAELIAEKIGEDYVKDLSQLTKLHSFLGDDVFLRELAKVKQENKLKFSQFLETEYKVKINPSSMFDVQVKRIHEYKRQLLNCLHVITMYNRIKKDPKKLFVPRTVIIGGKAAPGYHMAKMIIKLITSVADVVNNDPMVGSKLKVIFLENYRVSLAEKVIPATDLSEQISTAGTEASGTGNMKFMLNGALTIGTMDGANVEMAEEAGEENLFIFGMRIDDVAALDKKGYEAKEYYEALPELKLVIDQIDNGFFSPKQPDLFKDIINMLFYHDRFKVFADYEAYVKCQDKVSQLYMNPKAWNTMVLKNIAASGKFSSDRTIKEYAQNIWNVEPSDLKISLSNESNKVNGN
Experiment: Glycogen phosphorylase a activity test
Assay type: biochemical
Conditions: 10 μM test substance, GPa measured in reverse direction (glycogen synthesis from glucose 1-phosphate)
Description: Glycogen Phophorylase a Activity Test
The effect of compounds on the activity of the active form of glycogen phosphorylase (GPa) was measured in the reverse direction by monitoring the synthesis of glycogen from glucose 1-phosphate by determining the release of inorganic phosphate. All reactions were carried out as duplicate determinations in 96-well microtiter plates (half area plates, Costar No. 3696), and the change in absorption as a consequence of the formation of the reaction product was measured at the wavelength specified below in a Multiskan Ascent Elisa Reader (Lab Systems, Finland).
In order to measure the GPa enzyme activity in the reverse direction, the conversion of glucose 1-phosphate to glycogen and inorganic phosphate was measured by the general method of Engers et al. (Engers HD, Shechosky S, Madsen NB, Can J Biochem 1970 July;48(7):746–754) with the following modifications: human glycogen phosphorylase a (for example containing 0.76 mg of protein/ml (Aventis Pharma Deutschland GmbH), dissolved in buffer solution E (25 mM P-glycerophosphate, pH 7.0, 1 mM EDTA and 1 mM dithiotreitol) was diluted to a concentration of 10 μg of protein/ml with buffer T (50 mM Hepes, pH 7.0, 100 mM KCl, 2.5 mM EDTA, 2.5 mM MgCl2.6H2O) and addition of 5 mg/ml of glycogen. Test substances were prepared as a 10 mM solution in DMSO and diluted to 50 μM with buffer solution T. To 10 μl of this solution were added 10 μl of 37.5 mM glucose dissolved in buffer solution T and 5 mg/ml of glycogen, and also 10 μl of a solution of human glycogen phosphorylase a (10 μg of protein/ml) and 20 μl of 2.5 mM glucose 1-phosphate. The base value of the activity of glycogen phosphorylase a in the absence of test substance was determined by adding 10 μl of buffer solution T (0.1% DMSO). The mixture was incubated at room temperature for 40 minutes and the released inorganic phosphate was determined by means of the general method of Drueckes et al. (Drueckes P, Schinzel R, Palm D, Anal Biochem 1995 Sep. 1;230(1):173–177) with the following modifications: 50 μl of a stop solution of 7.3 mM of ammonium molybdate, 10.9 mM of zinc acetate, 3.6% of ascorbic acid, 0.9% of SDS are added to 50 μl of the enzyme mixture. After 60 minutes of incubation at 45° C., the absorption was measured at 820 nm. To determine the background absorption, the stop solution was added immediately after the addition of the glucose 1-phosphate solution in a separate reaction.

COc1ccc(NC(C)=O)cc1NC(=O)NC(=O)c1cc(F)c(F)cc1Cl [Example 1, N-{3-[3-(2-Chloro-4,5-difluorobenzoyl)ureido]-4-methoxyphenyl}acetamide]
inhibition at 10 µM: 99%

COC(=O)C(=O)Nc1ccc(OC)c(NC(=O)NC(=O)c2cc(F)c(F)cc2Cl)c1 [Example 2]
% Inhibition at 10 μM: 99%

COC(=O)CC(=O)Nc1ccc(OC)c(NC(=O)NC(=O)c2cc(F)c(F)cc2Cl)c1 [Example 3]
% Inhibition at 10 μM: 104%

COC(=O)CCC(=O)Nc1ccc(OC)c(NC(=O)NC(=O)c2cc(F)c(F)cc2Cl)c1 [Example 4]
% Inhibition at 10 μM: 97%

COc1ccc(NC(=O)C(=O)O)cc1NC(=O)NC(=O)c1cc(F)c(F)cc1Cl [Example 5]
% Inhibition at 10 μM: 99%

COc1ccc(NC(=O)CC(=O)O)cc1NC(=O)NC(=O)c1cc(F)c(F)cc1Cl [Example 6]
% Inhibition at 10 μM: 100%

COc1ccc(NC(=O)CCC(=O)O)cc1NC(=O)NC(=O)c1cc(F)c(F)cc1Cl [Example 7]
% Inhibition at 10 μM: 100%

COc1ccc(NC(=O)CCC(N)=O)cc1NC(=O)NC(=O)c1cc(F)c(F)cc1Cl [Example 8]
% Inhibition at 10 μM: 100%

COC(=O)CC(=O)Nc1cc(NC(=O)NC(=O)c2cc(F)c(F)cc2Cl)c(C)cc1OC [Example 10]
% Inhibition at 10 μM: 95%

COc1cc(C)c(NC(=O)NC(=O)c2cc(F)c(F)cc2Cl)cc1NC(=O)CC(=O)O [Example 11]
% Inhibition at 10 μM: 96%

COc1cc(C)c(NC(=O)NC(=O)c2cc(F)c(F)cc2Cl)cc1NC(=O)CCC(=O)O [Example 12]
% Inhibition at 10 μM: 90%

COc1cc(C)c(NC(=O)NC(=O)c2cc(F)c(F)cc2Cl)cc1NC(=O)C(=O)O [Example 13]
% Inhibition at 10 μM: 94%

COc1cc(C)c(NC(C)=O)cc1NC(=O)NC(=O)c1cc(F)c(F)cc1Cl [Example 14]
% Inhibition at 10 μM: 91%

COC(=O)C(=O)Nc1cc(NC(=O)NC(=O)c2cc(F)c(F)cc2Cl)c(OC)cc1C [Example 15]
% Inhibition at 10 μM: 101%

COC(=O)CC(=O)Nc1cc(NC(=O)NC(=O)c2cc(F)c(F)cc2Cl)c(OC)cc1C [Example 16]
% Inhibition at 10 μM: 95%

COc1cc(C)c(NC(=O)C(=O)O)cc1NC(=O)NC(=O)c1cc(F)c(F)cc1Cl [Example 17]
% Inhibition at 10 μM: 100%

COc1cc(C)c(NC(=O)CC(=O)O)cc1NC(=O)NC(=O)c1cc(F)c(F)cc1Cl [Example 18]
% Inhibition at 10 μM: 99%

COc1cc(C(=O)O)c(NC(C)=O)cc1NC(=O)NC(=O)c1cc(F)c(F)cc1Cl [Example 19]
% Inhibition at 10 μM: 97%

CCOC(=O)c1cc(OC)c(NC(=O)NC(=O)c2cc(F)c(F)cc2Cl)cc1NC(C)=O [Example 20]
% Inhibition at 10 μM: 95%

COc1cc(C(=O)O)c(NC(=O)CC(=O)O)cc1NC(=O)NC(=O)c1cc(F)c(F)cc1Cl [Example 22]
% Inhibition at 10 μM: 96%

COc1cc(C(=O)O)c(NC(=O)C(=O)O)cc1NC(=O)NC(=O)c1cc(F)c(F)cc1Cl [Example 25]
% Inhibition at 10 μM: 95%

COc1cc(C(=O)O)c(NC(=O)CCC(=O)O)cc1NC(=O)NC(=O)c1cc(F)c(F)cc1Cl [Example 26]
% Inhibition at 10 μM: 97%

COCC(=O)Nc1ccc(OC)c(NC(=O)NC(=O)c2cc(F)c(F)cc2Cl)c1 [Example 27]
% Inhibition at 10 μM: 98%

COc1ccc(NC(=O)c2cccnc2)cc1NC(=O)NC(=O)c1cc(F)c(F)cc1Cl [Example 28]
% Inhibition at 10 μM: 89%

COc1ccc(NC(=O)c2cccs2)cc1NC(=O)NC(=O)c1cc(F)c(F)cc1Cl [Example 29]
% Inhibition at 10 μM: 98%

CCC(=O)Nc1ccc(OC)c(NC(=O)NC(=O)c2cc(F)c(F)cc2Cl)c1 [Example 30]
% Inhibition at 10 μM: 101%

COc1ccc(NC(=O)C2CC2)cc1NC(=O)NC(=O)c1cc(F)c(F)cc1Cl [Example 31]
% Inhibition at 10 μM: 98%

COc1ccc(NC(=O)c2ccco2)cc1NC(=O)NC(=O)c1cc(F)c(F)cc1Cl [Example 32]
% Inhibition at 10 μM: 102%

COc1ccc(NC(=O)C2CCCC2)cc1NC(=O)NC(=O)c1cc(F)c(F)cc1Cl [Example 33]
% Inhibition at 10 μM: 96%

COc1ccc(NC(=O)c2ccccc2OC)cc1NC(=O)NC(=O)c1cc(F)c(F)cc1Cl [Example 34]
% Inhibition at 10 μM: 97%

CC=CC(=O)Nc1ccc(OC)c(NC(=O)NC(=O)c2cc(F)c(F)cc2Cl)c1 [Example 35]
% Inhibition at 10 μM: 99%

COc1ccc(NC(=O)c2ccccc2F)cc1NC(=O)NC(=O)c1cc(F)c(F)cc1Cl [Example 36]
% Inhibition at 10 μM: 101%

COc1ccc(NC(=O)Cc2ccccc2)cc1NC(=O)NC(=O)c1cc(F)c(F)cc1Cl [Example 37]
% Inhibition at 10 μM: 101%

COc1ccc2oc(C(=O)Nc3ccc(OC)c(NC(=O)NC(=O)c4cc(F)c(F)cc4Cl)c3)cc2c1 [Example 38]
% Inhibition at 10 μM: 102%

COc1ccc(NC(=O)c2cc3cc(Cl)ccc3o2)cc1NC(=O)NC(=O)c1cc(F)c(F)cc1Cl [Example 39]
% Inhibition at 10 μM: 101%

COc1ccc(NC(=O)c2ccc(F)cc2)cc1NC(=O)NC(=O)c1cc(F)c(F)cc1Cl [Example 40]
% Inhibition at 10 μM: 98%

COc1cccc(CC(=O)Nc2ccc(OC)c(NC(=O)NC(=O)c3cc(F)c(F)cc3Cl)c2)c1 [Example 41]
% Inhibition at 10 μM: 104%

COc1ccc(NC(=O)C(=O)c2c[nH]c3ccccc23)cc1NC(=O)NC(=O)c1cc(F)c(F)cc1Cl [Example 42]
% Inhibition at 10 μM: 83%

COc1ccc(NC(=O)C(C)C)cc1NC(=O)NC(=O)c1cc(F)c(F)cc1Cl [Example 43]
% Inhibition at 10 μM (10 µM): 98%

COc1ccc(NC(=O)C2CCC2)cc1NC(=O)NC(=O)c1cc(F)c(F)cc1Cl [Example 44]
% Inhibition at 10 μM: 101%

COc1ccc(NC(=O)c2cccc(F)c2)cc1NC(=O)NC(=O)c1cc(F)c(F)cc1Cl [Example 45]
% Inhibition at 10 μM: 97%

C=CCCC(=O)Nc1ccc(OC)c(NC(=O)NC(=O)c2cc(F)c(F)cc2Cl)c1 [Example 46]
% Inhibition at 10 μM: 102%

CCCCC(=O)Nc1ccc(OC)c(NC(=O)NC(=O)c2cc(F)c(F)cc2Cl)c1 [Example 47]
% Inhibition at 10 μM: 105%

CCOC(=O)CCC(=O)Nc1ccc(OC)c(NC(=O)NC(=O)c2cc(F)c(F)cc2Cl)c1 [Example 48]
% Inhibition at 10 μM: 97%

COc1ccc(NC(=O)COC(C)=O)cc1NC(=O)NC(=O)c1cc(F)c(F)cc1Cl [Example 49]
% Inhibition at 10 μM: 99%

COc1ccc(NC(=O)C(C)C)cc1NC(=O)NC(=O)c1cc(F)c(F)cc1Cl [Example 50]
% Inhibition at 10 μM (10 µM): 94%

COc1ccc(NC(=O)c2ccccc2OC(F)(F)F)cc1NC(=O)NC(=O)c1cc(F)c(F)cc1Cl [Example 51]
% Inhibition at 10 μM: 92%

COc1ccc(NC(=O)CN)cc1NC(=O)NC(=O)c1cc(F)c(F)cc1Cl [Example 52]
% Inhibition at 10 μM: 101%

COc1ccc(NC(=O)CCCN)cc1NC(=O)NC(=O)c1cc(F)c(F)cc1Cl [Example 53]
% Inhibition at 10 μM: 100%

CNCC(=O)Nc1ccc(OC)c(NC(=O)NC(=O)c2cc(F)c(F)cc2Cl)c1 [Example 54]
% Inhibition at 10 μM: 100%

COc1ccc(NC(=O)CCN)cc1NC(=O)NC(=O)c1cc(F)c(F)cc1Cl [Example 55]
% Inhibition at 10 μM: 100%
